Measured values: patent US5079257A, “Indoloquinone compounds” (priority 1986, dated 1992)
≈ marks a conversion by molar mass, not a printed value.

Key:
L1210 cells [1] = assay: L1210 activity in clonogenic assay (TNO Rijswijk); assay type: cell-based; conditions: Mus musculus, L1210, 192 h, read-out: ID-50 L1210, clonogenic assay
Text: The indoloquinones II (formula II) have been tested in respect of their cytotoxic activity against L1210 cells and R-1 cells (Rhabdomyosarcoma Cells) in a bioliquid assay at the department of oncology of the Free University of Amsterdam (Table I). In addition to this seven compounds (E.O. 1, E.O. 2, E.O. 4, E.O. 7, E.O. 9, E.O. 16 and E.O. 17) have been tested on L1210 activity in a clonogenic assay at TNO, Rijswijk. Further, the lowest active doses of the compounds E.O. 1, E.O. 2, E.O. 4 and E.O. 9 have been determined at TNO Rijswijk, according to the method described by Lamberts et al. [Oncology, 40, 301 (1983)]. (Table II). Eight indoloquinones (E.O. 1, E.O. 2, E.O. 4, E.O. 4A, E.O. 8, E.O. 9, E.O. 33 and E.O. 35) have been tested in a panel of five human tumour lines (TNO Rijswijk; Table III). From the latter group three indoloquinones (E.O. 1, E.O. 4 and E.O. 9) have been selected for a cytotoxicity study, involving five slowly growing human tumour lines (University of Freiburg; Table IV).
The L1210 clonogenic assay used was an improved variant of the method described earlier by H. MARTIN et al. [Cancer Chemother., Rep., 51 451 (1967)] and L. M. van Putten et al. [Cancer Treat. Rep., 60, 373 (1976)] for the growth into colonies of L1210 cells in a soft agar medium. From a suspension culture ~100 L1210 Cells (0.1 ml) were plated into […] culture dishes (Falcon), containing 1 ml of soft agar growth medium and the compound to be tested in appropriate concentrations. The soft agar growth medium consisted of Dulbecco medium supplemented with 15.8% horse serum, 60 μmol 2-mercapto-ethanol, 20 mg/ml L-asparagine and 0.3% bacto agar (Difco).
The culture dishes were incubated at 37° C. in an atmosphere of 1% CO2 in humidified air for 8 days. After this period of continuous drug exposure, colonies were counted and dose-effect curves were made.

in vivo = assay: in vivo; design: species or system mice; conditions: mouse, IP, single dose, suspension in carboxymethyl cellulose (2%)
Experimental: The acute toxicity experiments were carried out with male C5 Black/Rij X CBA/Rij Fl hybrid mice at TNO, Rijswijk. The drugs were administrated IP as suspensions in carboxymethyl cellulose (2%) as a single dose at the first day.

L1210 [2] = assay: In vivo L1210 experiments (TNO Rijswijk); design: species or system mice; conditions: Mus musculus, L1210, read-out: % T/C
Experimental: The in vivo L1210 experiments were carried out in male Balb/c X DBA.2 Fl hybrid mice at TNO, Rijswijk.
In these experiments also, the drugs were administered IP as suspensions in carboxymethyl cellulose […] as a single dose at the first day.

L1210 [3] = conditions: 3-6 mg/kg; Remers et al., J. Med. Chem. 26 16 (1983); cited from earlier work
MCF7 breast cancer cells = assay: In vitro panel of human tumour lines (TNO): MCF-7; assay type: cell-based; conditions: about 72 hours; further: key: -: no inhibition of cell growth; +: total cell-kill
Experimental: (§1) Compounds E.O. 1, E.O. 2, E.O. 4, E.O. 4A, E.O. 8, E.O. 9, […], E.O. 33, and E.O. 35 were tested for their activity against five human tumour cell lines at the Radiobiological Institute TNO Rijswijk.
(§2) The new in vitro prescreen uses human tumour clones; it was set up by Dr. P. Lelieveld at TNO Rijswijk and comprises testing compounds in a bioliquid assay for their cytostatic activity against the following five human tumour lines:
(§3) After a continuous exposure to the drugs to be tested and to Adriamycin in `24 well tissue culture clusters, type 3524 (Costar)`, the remaining cells are fixed and stained. Using increasing drug concentrations the inhibiting concentration can be estimated qualitatively.
(§4) Cells: the human tumour cells are maintained in Dulbecco's medium supplemented with 10 percent foetal calf serum.
(§5) M and W cell suspensions: 10^5 cells/ml.
(§6) The cells were grafted into 16 mm wells for 48 hours (0.5 ml cell suspension per well was used).
(§7) Drugs: the compound to be tested was dissolved in appropriate concentrations in a mixture of Hepes-buffered Hanks' balanced salt solution and ethanol. The drug solutions (0.05 ml) were added to the different wells. The final ethanol concentration in each well was less than one percent.
(§8) The cells were continuously incubated with the compound under test at 37° in an atmosphere of 10 percent CO2 in humidified air for about 72 hours.
(§9) Determination of the inhibiting dose: the cells were fixed and stained with a solution of crystal violet in methanol/formaldehyde.

DNA = conditions: cited from earlier work
[4] = tested on: supercoiled covalently closed circular (CCC) DNA; conditions: reducing agent, presence of oxygen; cited from earlier work
WiDr cells; colon tumour = assay: In vitro panel of human tumour lines (TNO): WiDr; assay type: cell-based; conditions: about 72 hours; further: key: -: no inhibition of cell growth; +: total cell-kill
Experimental: as §1, §2, §3, §4, §5, §6, §7, §8, §9

[5] = tested on: R-1 cells (Rhabdomyosarcoma Cells); assay: R-1 activity (bioliquid assay), cytotoxicity; assay type: cell-based; conditions: Rhabdomyosarcoma cell; Table VIII; read-out: ID-50 R-1
Outline: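 Rhabdomyosarcoma R-1 cells (~10^6 per dish) in Dulbecco's medium with 10% FCS were exposed to drug solution, which was then replaced by fresh medium. Cells were trypsinized after 48 hours and counted electronically.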

[6] = tested on: T 24 cells; bladder carcinoma; assay: In vitro panel of human tumour lines (TNO): T 24; assay type: cell-based; conditions: about 72 hours; further: key: -: no inhibition of cell growth; +: total cell-kill
Experimental: as §1, §2, §3, §4
(§10) A, T and Z cell suspensions: 5·10^4 cells/ml
as §6, §7, §8, §9

Ovarian (MRI-H-207) line = assay type: in vivo, human; conditions: 5 mg/kg, days of treatment 0.7
Text: The xenograft experiments have been carried by Dr. H. H. Fiebig of the University of Freiburg [Lung-NSCLC (LXGF) line, Renal line, Breast line; See: H. H. Fiebig et al., Behring Inst. Mitt., 74 343] and by Dr. E. Boven of the Free University Hospital Amsterdam [Ovarian (MRI-H-207) line; See: E. Boven et al., Cancer Res., 45, 86 (1985) and E. Boven et al., Eur. J. Clin. Oncol., 21, 1253 (1985)].
Mice: C57B1 athymic (nu/nu) female mice, 8 to 10 weeks of age were used for s.c. bilateral implantation of tumour fragments 2 mm diameter.
Treatment: E.O. 9 was dissolved in saline at a concentration of 0.5 mg/ml prior to administration. Drug doses and schedules were derived from studies in experimental murine tumour systems and from orientation studies in non-tumour-bearing nude mice. Treatment was started i.v. when tumours measured 50-150 mm^3. After randomization a group of 6-7 tumour-bearing mice was treated and a group of 5-6 tumour-bearing mice served as control.
Evaluation of efficacy: Tumours were measured twice weekly in three dimensions. Efficacy was expressed as the mean of relative tumour volume in treated animals vs. that in control animals×100 (% T/C). The optimal value was calculated within 35 days after the last injection. Toxic death (dead mice within two weeks after the last injection) were excluded from the evaluation.
MRI-H-207: An undifferentiated adenocarcinoma kindly provided by Dr. A. E. Bogden, Worcester, Mass, with a doubling time of 3-5 days.

[7] = tested on: A 204 cells; rhabdomyosarcoma; assay: In vitro panel of human tumour lines (TNO): A 204; assay type: cell-based; conditions: about 72 hours; further: key: -: no inhibition of cell growth; +: total cell-kill
Experimental: as §1, §2, §3, §4, §10, §6, §7, §8, §9

IgR37 cells melanoma = assay: In vitro panel of human tumour lines (TNO): IgR-37; assay type: cell-based; conditions: about 72 hours; further: key: -: no inhibition of cell growth; +: total cell-kill
Experimental: as §1, §2, §3, §4, §10, §6, §7, §8, §9

L1210 cells [8] = assay: L1210 activity (bioliquid assay), cytotoxicity; assay type: cell-based; conditions: Mus musculus, L1210, 48 h; Table VIII; read-out: ID-50 L1210
Outline: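 Suspension culture in RPMI with 15% FCS and 2-mercaptoethanol (60 μmol). Continuous compound exposure for 48 hours at 37° C under 5% CO2 in humidified air. Cell numbers then counted on an electronic microcell counter.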

[9] = tested on: breast, pancreatic and prostatic adenocarcinomas, colon, bladder, lung and gastro-intestinal cancer; conditions: cited from earlier work

## CCCCn1c(/C=C/CO)c(CO)c2c1C(=O)C=C(OC)C2=O [E.O. 16, 3-Hydroxymethyl-5-methoxy-1-butyl-2-[1H-indole-4,7-dione]prop-β-en-α-ol]
L1210 cells [1]; 8 days continuous exposure, TNO Rijswijk
  IC50: 0.9 µg/mL (≈ 2.82 µM)
In vivo
  LD50: 80 mg/kg
L1210 [2]; 80 mg/kg IP single dose
  response vs control in vivo at 80 mg/kg: 89%
L1210 [2]; 100 mg/kg IP single dose
  response vs control in vivo at 100 mg/kg: 100%

## CO[C@@]12[C@H](COC(N)=O)C3=C(C(=O)C(C)=C(N)C3=O)N1C[C@@H]1N[C@@H]12 [MMC, mitomycin C, reference compound]
L1210 [3]
  max. effect (% T/C): 124-153%
MCF7 breast cancer cells; 0.01 μg/ml
  in vitro activity score, MCF-7: -
MCF7 breast cancer cells; 0.1 μg/ml
  in vitro activity score, MCF-7: -
MCF7 breast cancer cells; 10 μg/ml
  in vitro activity score, MCF-7: +
DNA
  DNA crosslinks: caused rapid DNA instrand crosslinks in a dose dependent fashion
[4]
  DNA strand breaks: produced single strand breaks
WiDr cells; colon tumour; 0.01 μg/ml
  in vitro activity score, WiDr: -
WiDr cells; colon tumour; 0.1 μg/ml
  in vitro activity score, WiDr: -
WiDr cells; colon tumour; 10 μg/ml
  in vitro activity score, WiDr: +
L1210 [2]; 4 mg/kg IP single dose
  response vs control in vivo at 4 mg/kg: 200%
L1210 [2]; 5 mg/kg IP single dose
  response vs control in vivo at 5 mg/kg: 175%
L1210 [2]; 6 mg/kg IP single dose
  response vs control in vivo at 6 mg/kg: 175%
[5]
  IC50: 0.03 µg/mL (≈ 0.0897 µM)
[6]; 0.01 μg/ml
  in vitro activity score, T 24: -
[6]; 10 μg/ml
  in vitro activity score, T 24: +
Ovarian (MRI-H-207) line
  toxic deaths: 1/7
[7]; 0.01 μg/ml
  in vitro activity score, A 204: -
[7]; 1.0 μg/ml
  in vitro activity score, A 204: +
[7]; 10 μg/ml
  in vitro activity score, A 204: +
IgR37 cells melanoma; 0.01 μg/ml
  in vitro activity score, IgR-37: -
IgR37 cells melanoma; 1.0 μg/ml
  in vitro activity score, IgR-37: +
IgR37 cells melanoma; 10 μg/ml
  in vitro activity score, IgR-37: +
L1210 cells [8]
  IC50: 0.05 µg/mL (≈ 0.15 µM)
[9]
  antitumour activity: active against breast, pancreatic and prostatic adenocarcinomas, and notably against colon, bladder, lung and gastro-intestinal cancer

## CCCCn1c(/C=C/CO)c(CO)c2c1C(=O)C=C(N1CC1)C2=O [E.O. 17, 5-Aziridino-3-hydroxymethyl-1-butyl-2-[1H-indole-4,7-dione]prop-β-en-αol]
L1210 cells [1]
  IC50: 0.3 µg/mL (≈ 0.908 µM)
In vivo
  LD50: 50 to 80 mg/kg
